# Source: US9371330B2, “Substituted pyrazino[1,2-a]pyrimidines useful as CBP/catenin antagonists for enhancing asymmetric division of somatic stem cells” (University of Southern California, priority 2011, dated 2016)
# “Also recorded” adds a separate entry of the source.
# Tests used:
# [1] = tested on: skin injury; test: skin injury repair in normal and hair-less mice; format: in vivo, mouse; details: 500 μM in vaseline, once a day for eight days
# Procedure: The ability of CBP/catenin (e.g., CBP/β-catenin) antagonist to accelerate injured skin repair in normal mice models (having full hair growth and normal fur) and hair-less mice models was tested. In brief, on day 0, the animals were subjected to skin injury in two spots on the back, hind end of each animal. Each skin injury spot was treated with 500 μM of either Vaseline (petrolatum) (vehicle) or Laura-8 in vaseline once a day for eight days.
# [2] = tested on: hair-less mouse model; test: hair growth in hair-less mouse model; format: in vivo; details: vs petroleum jelly
# Procedure: The ability of CBP/β-catenin antagonist to stimulate hair growth in a hair-less mouse model was tested. In brief, the animals were treated with either petroleum jelly or Laura-8 for 16 days. In addition, skin samples from each animal were taken and examined for hair-follicle formulation.
# [3] = tested on: normal stem cell niche; test: aging mice, long term topical administration; format: in vivo, mouse; details: 12 months (6 to 18 months of age)
# From the text: Left mouse is control, whereas right mouse received CBP/catenin (e.g., CBP/β-catenin) antagonists (topical Laura-8 as disclosed herein) for 12 months (from 6 months of age to 18 months of age).
# [4] = tested on: mitotic cells in the ventricular zone (VZ); test: symmetric versus asymmetric divisions (Par3 distribution) in the ventricular zone of mouse embryos; format: in vivo
# From the text: Taking advantage of the ready uptake and penetration through the placental barrier of applicant's small molecule Wnt modulators, applicant designed a series of experiments to investigate symmetric versus asymmetric divisions in the ventricular zone (VZ) of the brain during mouse embryonic development. Timed pregnant mice were topically treated for various time periods (1-3 days) with DMSO (vehicle control), the CBP/catenin antagonist ICG-001 or the p300/catenin antagonist IQ-1. Using a previously described protocol (56), the localization of […] (Par3) and DNA was examined in mitotic cells in the VZ. Par3 distributes symmetrically in cells that divide symmetrically and asymmetrically in cells that divide asymmetrically, whereas the DNA distributes symmetrically between the 2 cells. Using fluorescence microscopy, the percentage of mitotic cells dividing symmetrically or asymmetrically could be quantified. […] Antagonizing the CBP/catenin interaction with ICG-001 had no apparent effect yielding similarly, approximately 21% asymmetric divisions. […] Importantly, this decrease in asymmetric divisions upon treatment with IQ-1 could be rescued back essentially to control levels (i.e. ˜21%) by treatment with a 2-fold excess of ICG-001. Even further divergence in symmetric versus asymmetric divisions could be seen upon prolonged treatments. For example, treatment with IQ-1 (i.e., antagonizing p300/catenin interaction leading to increased usage of CBP) for 3 days (E13.5-16.5) decreased asymmetric divisions compared to control from 31% to 7%. […] This reporter mouse expresses EGFP, driven by the Tis21 promoter, in cells that have undergone neurogenic differentiative divisions.
# For example, Bultje et al (Bultje R Neuron 63, 189-202, 2009) describe an assay to measure asymmetric distributions in the ventricular zone (vz) to evaluate asymmetric divisions during neurogenesis. Essentially this involves treating the animal (either adult or in utero) for a set period of time with compounds (either p.o., s.c., i.v. or topically) with compounds and then sacrificing the animal and examining the Par3 distribution (e.g., via immunohistochemistry) in mitotic cells vs. DNA distribution (e.g., using DAPI staining) Par3 distributes equally among the two daughter cells during symmetric division and unequally (essentially all in one daughter cell) during asymmetric differentiation.
# [5] = tested on: murine embryonic stem cells (mESCs); test: long-term culture of murine embryonic stem cells; format: cell-based, mouse; details: Wnt-dependent
# From the text: (§1) IQ-1. In addition to ICG-001, a screen of a large chemical library for maintenance of pluripotency in mES cells led to the identification of another compound, termed IQ-1 (FIG. 2b). […] I-Q-1 diminishes the interaction between p300 and beta-catenin thereby increasing the CBP/beta-catenin interaction (24).
# [6] = tested on: PR72/130 subunit of the serine/threonine phosphatase PP2A; test: binding to PP2A subunit
# From the text: as §1
# [7] = tested on: elastin; test: ex vivo human skin assay, qRT-PCR of elastin; format: cell-based; details: 24 hrs; 5 uM ICG-001, 5 uM methylated ICG-001, 1 ug/ml RA
# Procedure: (§2) Methods. Ex Vivo human skin assay culture conditions were based upon a paper by Varani J et al Experimental and Molecular Pathology, 2004.
# (§3) Briefly, human skin (surgical waste from plastic surgery procedures) was obtained and the subcutaneous layer of fat was trimmed manually with a scalpel. The skin was then cut into small fragments about 2 mm square and placed in 6 well plates. 1 ml of keratinocyte culture medium (Gibco 10724-011) with 1% P/S (penstrep antibiotic) was added to each well. The epidermis, bathed in media was placed facing up. On the next day (overnight culture in the media above), the skin fragments were transferred to fresh wells that contained either 5 uM ICG-001, 5-uM methylated ICG-001 or 1 ug/ml of retinoic acid (RA). After 24 hrs, skin samples in culture were removed for RNA isolation and qRT-PCR analysis of genes of interest (e.g. elastin (a gene involved in skin appearance and pliability (e.g., wrinkling) and aquaporin 1, which is involved with hydration.
# [8] = tested on: aquaporin 1; test: ex vivo human skin assay, qRT-PCR of aquaporin 1; format: cell-based; details: 24 hrs; 5 uM ICG-001, 5 uM methylated ICG-001, 1 ug/ml RA
# Procedure: as §2, §3
smiles,measurement,setting,value
CCCCCCCCCCCC(=O)Oc1ccc(C[C@H]2C(=O)N(Cc3cccc4ccccc34)C[C@@H]3N(C(=O)NCc4ccccc4)CCC(=O)N32)cc1 [Laura-8],skin healing,[1],significantly accelerated skin healing process
same,hair growth,[2]; 16 days,significant hair growth
same,new hair-follicle formation (skin pathology),[2],new hair-follicles were formed; also recorded: substantial new hair-follicle formation
same,depletion of the normal stem cell niche,[3],does not deplete the normal stem cell niche
CC(=O)c1ccc(N=NC(C(N)=O)=C2NC(C)(C)Cc3ccccc32)cc1 [IQ-1],asymmetric divisions in the VZ,[4]; 3 days (E13.5-16.5),7%
same,effect on number of asymmetric divisions,[4]; topical or oral administration to pregnant mice,decreases the number of asymmetric divisions
same,asymmetric divisions in the VZ,"[4]; topical to timed pregnant mice, 1 day (E13.5 to 14.5)",approximately 9%
same,maintenance of pluripotency,[5],maintains the pluripotency
same,binding to PR72/130,[6],binds to the PR72/130 subunit of the serine/threonine phosphatase PP2A
"C[C@H]1C2N(C(=O)NCc3ccccc3)CCC(=O)N2[C@@H](Cc2ccc(O)cc2)C(=O)N1Cc1cccc2ccccc12 (stereo partly drawn) [Me-ICG-001, (6S,9S)—N-benzyl-6-(4-hydroxybenzyl)-9-methyl-8-(naphthalen-1-ylmethyl)-4,7-dioxooctahydro-1H-pyrazino[1,2-a]pyrimidine-1-carboxamide]",expression of elastin,[7],larger increase
same,expression of aquaporin 1,[8],larger increase
